Numbers after ± are expanded uncertainties.
Assay: mn = molality of the nth substance listed, in mol/kg
Details: 101 kPa, Liquid; for viscosity: Capillary tube (Ostwald / Ubbelohde) method; for mass density: Vibrating tube method

## O=C[C@H](O)[C@@H](O)[C@H](O)[C@H](O)CO [D-glucose] + O
278.15 K, m1 = 0.2
  viscosity: 1.694 ± 0.016 mPa·s
  mass density: 1019.65 ± 0.074 kg/m3
278.15 K, m1 = 0.4
  viscosity: 1.873 ± 0.018 mPa·s
  mass density: 1031.6 ± 0.078 kg/m3
278.15 K, m1 = 0.6
  viscosity: 2.074 ± 0.02 mPa·s
  mass density: 1043.55 ± 0.082 kg/m3
278.15 K, m1 = 0.8
  viscosity: 2.3 ± 0.022 mPa·s
  mass density: 1055.51 ± 0.087 kg/m3
278.15 K, m1 = 1
  viscosity: 2.536 ± 0.024 mPa·s
  mass density: 1067.46 ± 0.092 kg/m3
278.15 K, m1 = 1.2
  viscosity: 2.802 ± 0.027 mPa·s
  mass density: 1079.41 ± 0.098 kg/m3
283.15 K, m1 = 0.2
  viscosity: 1.451 ± 0.014 mPa·s
  mass density: 1017.74 ± 0.074 kg/m3
283.15 K, m1 = 0.4
  viscosity: 1.599 ± 0.015 mPa·s
  mass density: 1029.58 ± 0.077 kg/m3
283.15 K, m1 = 0.6
  viscosity: 1.766 ± 0.017 mPa·s
  mass density: 1041.42 ± 0.081 kg/m3
283.15 K, m1 = 0.8
  viscosity: 1.953 ± 0.019 mPa·s
  mass density: 1053.25 ± 0.086 kg/m3
283.15 K, m1 = 1
  viscosity: 2.147 ± 0.021 mPa·s
  mass density: 1065.09 ± 0.091 kg/m3
283.15 K, m1 = 1.2
  viscosity: 2.374 ± 0.023 mPa·s
  mass density: 1076.93 ± 0.097 kg/m3
288.15 K, m1 = 0.2
  viscosity: 1.258 ± 0.012 mPa·s
  mass density: 1015.54 ± 0.073 kg/m3
288.15 K, m1 = 0.4
  viscosity: 1.383 ± 0.013 mPa·s
  mass density: 1027.28 ± 0.076 kg/m3
288.15 K, m1 = 0.6
  viscosity: 1.524 ± 0.014 mPa·s
  mass density: 1039.02 ± 0.08 kg/m3
288.15 K, m1 = 0.8
  viscosity: 1.682 ± 0.016 mPa·s
  mass density: 1050.75 ± 0.085 kg/m3
288.15 K, m1 = 1
  viscosity: 1.849 ± 0.017 mPa·s
  mass density: 1062.49 ± 0.09 kg/m3
288.15 K, m1 = 1.2
  viscosity: 2.029 ± 0.019 mPa·s
  mass density: 1074.22 ± 0.096 kg/m3
293.15 K, m1 = 0.2
  viscosity: 1.104 ± 0.01 mPa·s
  mass density: 1013.09 ± 0.072 kg/m3
293.15 K, m1 = 0.4
  viscosity: 1.21 ± 0.011 mPa·s
  mass density: 1024.74 ± 0.075 kg/m3
293.15 K, m1 = 0.6
  viscosity: 1.329 ± 0.012 mPa·s
  mass density: 1036.38 ± 0.079 kg/m3
293.15 K, m1 = 0.8
  viscosity: 1.46 ± 0.014 mPa·s
  mass density: 1048.03 ± 0.084 kg/m3
293.15 K, m1 = 1
  viscosity: 1.619 ± 0.015 mPa·s
  mass density: 1059.67 ± 0.089 kg/m3
293.15 K, m1 = 1.2
  viscosity: 1.754 ± 0.016 mPa·s
  mass density: 1071.32 ± 0.095 kg/m3
298.15 K, m1 = 0.2
  viscosity: 0.9748 ± 0.0087 mPa·s
  mass density: 1010.39 ± 0.077 kg/m3
298.15 K, m1 = 0.4
  viscosity: 1.066 ± 0.0096 mPa·s
  mass density: 1023.11 ± 0.078 kg/m3
298.15 K, m1 = 0.6
  viscosity: 1.166 ± 0.011 mPa·s
  mass density: 1035.26 ± 0.08 kg/m3
298.15 K, m1 = 0.8
  viscosity: 1.272 ± 0.012 mPa·s
  mass density: 1046.85 ± 0.083 kg/m3
298.15 K, m1 = 1
  viscosity: 1.395 ± 0.013 mPa·s
  mass density: 1057.94 ± 0.086 kg/m3
298.15 K, m1 = 1.2
  viscosity: 1.528 ± 0.014 mPa·s
  mass density: 1068.55 ± 0.09 kg/m3
303.15 K, m1 = 0.2
  viscosity: 0.8685 ± 0.0077 mPa·s
303.15 K, m1 = 0.4
  viscosity: 0.9469 ± 0.0084 mPa·s
  mass density: 1018.93 ± 0.074 kg/m3
303.15 K, m1 = 0.6
  viscosity: 1.035 ± 0.0092 mPa·s
  mass density: 1030.42 ± 0.078 kg/m3
303.15 K, m1 = 0.8
  viscosity: 1.132 ± 0.01 mPa·s
  mass density: 1041.92 ± 0.083 kg/m3
303.15 K, m1 = 1
  viscosity: 1.236 ± 0.011 mPa·s
  mass density: 1053.41 ± 0.087 kg/m3
303.15 K, m1 = 1.2
  viscosity: 1.343 ± 0.012 mPa·s
  mass density: 1064.9 ± 0.093 kg/m3
308.15 K, m1 = 0.2
  viscosity: 0.7811 ± 0.007 mPa·s
  mass density: 1004.38 ± 0.07 kg/m3
308.15 K, m1 = 0.4
  viscosity: 0.8496 ± 0.0075 mPa·s
  mass density: 1015.81 ± 0.073 kg/m3
308.15 K, m1 = 0.6
  viscosity: 0.9264 ± 0.0083 mPa·s
  mass density: 1027.24 ± 0.076 kg/m3
308.15 K, m1 = 0.8
  viscosity: 1.01 ± 0.0091 mPa·s
  mass density: 1038.67 ± 0.081 kg/m3
308.15 K, m1 = 1
  viscosity: 1.096 ± 0.0099 mPa·s
  mass density: 1050.1 ± 0.086 kg/m3
308.15 K, m1 = 1.2
  viscosity: 1.194 ± 0.011 mPa·s
  mass density: 1061.53 ± 0.091 kg/m3

— the NIST ThermoML archive (doi:10.1016/j.fluid.2009.06.008)
